The record followed here is ChEMBL document CHEMBL1201862, “PubChem BioAssay data set” (2004).

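Where inhibition never reached the appropriate level, the endpoint shown equals the highest concentration tested. Otherwise, values were interpolated linearly from a five-concentration, 48-hour dose response in 96-well plates. The concentration for 50% growth inhibition is given as GI50.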 Calls of active or inactive are those of the source. Cut-off read from the data, not from the text of the source: active = GI50 up to about 1.1 µM and inactive = higher.

Holding throughout (experiment): growth of human tumour cells (NCI), 48 h
The subject of test [1] is A549.
Test [2] has as its system CAKI-1.
Test [3] concerns EKVX.
Test [4] has as its system HCT-15.
Test [5] deals with HOP-62.
In test [6] the test system is HT-29.
Test [7] deals with KM12.
In test [8] the test system is MDA-MB-435.
In test [9] the test system is MOLT-4.
Test [10] deals with Malme-3M.
The subject of test [11] is NCI-H226.
The test system of test [12] is NCI-H460.
The test system of test [13] is SF-295.
Test [14] relates to SK-MEL-28.
Test [15] deals with SK-OV-3.
In test [16] the test system is SNB-19.
Test [17] relates to SW-620.
The subject of test [18] is HOP-92.

As for `N#Cc1ccc(C2NN=CC23C(=O)c2ccccc2OC3c2ccccc2)cc1` (stereo not drawn), the GI50 in [1] is 29.4 µM (inactive); in [2], 34 µM (inactive); in test [3], 21.1 µM (inactive); in [4], 25.4 µM; in [5], 54.6 µM (inactive); in test [6] it was 31.7 µM (inactive). In addition, the GI50 in test [7] was 36.4 µM (inactive); in test [8], 30.8 µM (inactive); in [9] it was 22.3 µM (inactive); in test [10] it was 53.7 µM (inactive); in test [11] it was 39.4 µM (inactive); in test [12], 27.4 µM (inactive). The GI50 in test [13] was 34.4 µM (inactive); in [14], 51.1 µM (inactive); in test [15], 31.8 µM (inactive); in test [16], 27.6 µM (inactive); in test [17] it was 45.2 µM (inactive).

Consider `O=P(Oc1ccc(Cl)cc1)(Oc1ccc(Cl)cc1)N1CC1`, for which the GI50 in [1] was > 10 µM (inactive); in test [3], > 10 µM (inactive); in test [4], above 10 µM; in test [5], > 10 µM (inactive); in [6] it was > 10 µM (inactive); in test [7] it was > 10 µM (inactive). In addition, the GI50 in test [8], in test [9], in test [10], in [11], in [12] and in test [13] was > 10 µM (inactive) in each case. Moreover, the GI50 in test [14], in test [15], in test [16] and in [17] was > 10 µM (inactive) each time.

In the case of `ClC1(Cl)C2CCOC21n1cnc2ccccc21` (stereo not drawn), the GI50 in [1] is > 100 µM (inactive); in test [2], > 100 µM (inactive); in test [3] it was > 100 µM (inactive); in [4], above 100 µM; in test [5], > 100 µM (inactive); in test [6], > 100 µM (inactive). The GI50 in test [7], in [8], in test [9], in test [10], in test [11] and in test [13] was > 100 µM (inactive) each time. Also, the GI50 in test [14] was > 100 µM (inactive); in test [15] it was > 100 µM (inactive); in [16], > 100 µM (inactive); in test [17], 7.21 µM (inactive).

`COCn1cnc2c(=O)n(-c3ccc(OC)cc3)c(=S)n(-c3ccc(OC)cc3)c21`: the GI50 was > 100 µM (inactive) in test [1]; > 100 µM (inactive) in [2]; > 100 µM (inactive) in test [3]; above 100 µM in test [4]; > 100 µM (inactive) in test [5]; > 100 µM (inactive) in [6]. The GI50 in test [7], in test [8], in test [9], in test [11], in test [12] and in [13] was > 100 µM (inactive) throughout. Besides, the GI50 in [14], in [15] and in [17] was > 100 µM (inactive) in each case.

As to `CNNC1=NS(=O)(=O)c2cc(C(=O)OC)c(Cl)cc2S1`, the GI50 was > 10 µM (inactive) in [1]; > 10 µM (inactive) in test [2]; > 10 µM (inactive) in test [3]; above 10 µM in test [4]; > 10 µM (inactive) in test [5]; > 10 µM (inactive) in [6]. Further, the GI50 in test [7], in [8], in test [9], in test [10], in [11] and in test [12] was > 10 µM (inactive) throughout. For the same molecule, the GI50 in test [13], in [14], in test [15], in test [16] and in test [17] was > 10 µM (inactive) each time.

Regarding `CC1CN=C(N(Cc2ccc(F)cc2)C(=O)Nc2ccc(Cl)cc2)S1` (stereo not drawn), the GI50 in [1] was 21.4 µM (inactive); in test [2], 5.32 µM (inactive); in [3], 16.2 µM (inactive); in [4], 6.22 µM; in test [5] it was 93.3 µM (inactive); in test [6] it was 17.8 µM (inactive). The GI50 in test [7] is 14 µM (inactive); in test [9] it was 27.7 µM (inactive); in [10], 34.8 µM (inactive); in [12] it was 18.7 µM (inactive); in test [13], 27.7 µM (inactive); in [14], 16.3 µM (inactive). The GI50 is > 100 µM (inactive) in [15], 95.1 µM (inactive) in test [16] and 22.5 µM (inactive) in test [17].

`N=c1sc(N2CCOCC2)nn1CC(=O)c1ccccc1`: the GI50 in test [1] is > 100 µM (inactive); in test [2], > 100 µM (inactive); in test [3], > 100 µM (inactive); in [4] it was above 100 µM; in test [5], > 100 µM (inactive); in test [6] it was > 100 µM (inactive). Moreover, the GI50 in test [7], in [8], in [9], in test [10], in [11] and in test [12] was > 100 µM (inactive) in each case. For the same molecule, the GI50 in [13], in [14], in test [15], in [16] and in [17] was > 100 µM (inactive) throughout.

Consider `O=C(Cn1ccnc1[N+](=O)[O-])c1ccc(F)cc1`, for which the GI50 in [1] was > 100 µM (inactive); in [2], > 100 µM (inactive); in [3] it was > 100 µM (inactive); in [4], above 100 µM; in test [5], > 100 µM (inactive); in test [18], > 100 µM (inactive). Moreover, the GI50 in [6], in test [7], in [9], in test [10], in test [11] and in [12] was > 100 µM (inactive) in each case. The GI50 in test [13], in [14], in test [15], in test [16] and in [17] was > 100 µM (inactive) throughout.

For `C=C(C)[C@@H]1CC[C@@H](C)[C@](O)([C@@H]2C[C@@H]([C@H](COC(=O)c3ccccc3)OC(=O)c3ccccc3)OC2=O)C1`, the GI50 in [1] is > 100 µM (inactive); in test [2], > 100 µM (inactive); in test [3], > 100 µM (inactive); in test [4], above 100 µM; in test [5], > 100 µM (inactive); in [6] it was > 100 µM (inactive). Also, the GI50 in test [7] is > 100 µM (inactive); in test [8], > 100 µM (inactive); in [9], 28 µM (inactive); in test [10] it was > 100 µM (inactive); in [11], > 100 µM (inactive); in [12], 39.1 µM (inactive). Further, the GI50 in test [13], in test [14], in test [15], in test [16] and in test [17] was > 100 µM (inactive) throughout.

Take `C[n+]1c2ccccc2c(C(=O)Nc2ccc(S(=O)(=O)Nc3ncccn3)cc2)c2ccccc21`: the GI50 in test [1] is > 100 µM (inactive); in test [2], > 100 µM (inactive); in [3] it was 80.7 µM (inactive); in [4], above 100 µM; in test [5], > 100 µM (inactive); in test [6], > 100 µM (inactive). The GI50 is > 100 µM (inactive) in [7]; 42.3 µM (inactive) in test [8]; 25.8 µM (inactive) in test [9]; > 100 µM (inactive) in test [10]; 37.4 µM (inactive) in [11]; > 100 µM (inactive) in test [12]. Besides, the GI50 in [13], in test [14], in test [15], in test [16] and in test [17] was > 100 µM (inactive) throughout.

For `O=c1[nH]c(=O)n(C2OC(CO)C(O)C2O)cc1OCCCc1ccccc1` (stereo not drawn), the GI50 in test [1] was > 100 µM (inactive); in [2], > 100 µM (inactive); in [3], > 100 µM (inactive); in test [4] it was above 100 µM; in test [5], > 100 µM (inactive); in test [6], > 100 µM (inactive). Moreover, the GI50 in test [7], in test [8], in [9], in test [10], in [11] and in [12] was > 100 µM (inactive) throughout. For the same molecule, the GI50 in test [13], in test [14], in test [15], in test [16] and in [17] was > 100 µM (inactive) each time.

For the molecule `S=c1sc2c(s1)SCCCCSCCCCSc1sc(=S)sc1SCCCCSCCCCS2`, the GI50 was > 100 µM (inactive) in [1]; > 100 µM (inactive) in test [2]; > 100 µM (inactive) in test [3]; above 100 µM in test [4]; > 100 µM (inactive) in [5]; > 100 µM (inactive) in [6]. The GI50 in test [7], in test [8], in test [9], in test [10], in test [11] and in test [12] was > 100 µM (inactive) in each case. Moreover, the GI50 in test [13], in [14], in test [15], in [16] and in test [17] was > 100 µM (inactive) each time.
